# Assay results from the METLIN SMRT retention time set (Domingo-Almenara et al. 2019).
# Assay: gradient 5% acetonitrile 3 min, to 50% in 2 min, to 85% in 15 min, held 3 min, 100 µL/min
# Conditions: column: Zorbax Extend-C18 2.1 x 50 mm; eluents: water / acetonitrile, 0.1% formic acid
# Summary of the method: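 Using water and acetonitrile that each contained 0.1% formic acid, mixtures of ~100 pure standards were separated at 100 μL/min on a Zorbax Extend-C18 column (2.1 × 50 mm, 1.8 μm). The HPLC fed a quadrupole time-of-flight mass spectrometer working in positive and negative ionization mode, with dead and dwell volumes of 40 μL and 900 μL. Data were acquired over 3 months. Retention time was read from computationally picked adduct peaks after manual inspection of each.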
row,SMILES,RP-LC retention time
1,O=C(Nc1ccc2c(c1)OCCO2)c1c(O)c2cccnc2n(-c2ccccc2)c1=O,1150 s
2,COc1ccc(Cl)cc1NS(=O)(=O)c1cn(CC(C)C)c2ncccc12,765 s
3,Cn1cc(C(=O)N2CCN(c3ccccn3)CC2)c2cccnc21,566 s
4,COCCCn1c(=O)c2ccccc2n(Cc2nc(-c3ccccc3Cl)no2)c1=O,1140 s
5,COc1cc(NC(=O)CSc2nccc(N3CCN(c4cc(C)ccc4C)CC3)n2)cc(OC)c1,673 s
6,Cc1nnc2cc(N3CCN(C(=O)c4cccc(N(C)C)c4)CC3)cnn12,496 s
7,O=C(Cn1cnc2ccccc2c1=O)N1CCCC(c2nnc(-c3ccccc3F)s2)C1 (stereo not given),730 s
8,Cc1ccc2c(c1)N(C(=O)Cn1cc(-c3noc(-c4ccncc4)n3)nc1C)CCO2,735 s
9,O=C(NCCCN1CCCCC1)c1ccc2c(c1)NC(=O)C1CCCCN21 (stereo not given),600 s
10,O=S(=O)(c1c[nH]c2ncccc12)N1CCc2ccccc21,763 s
11,COc1cccc(C(=O)N2CCC(c3cc(N)on3)CC2)c1OC,639 s
12,Cc1csc(NC(=O)C2CC(=O)N(c3n[nH]c4ccccc34)C2)n1 (stereo not given),665 s
13,Cc1cc2nn(CC(=O)N(C)c3ccccc3)c(=O)n2c(Nc2ccccc2C)n1,922 s
14,CN(Cc1cc(Br)cc(Br)c1N)C1CCCCC1,832 s
15,COc1cccc(-c2nnc(Cc3nc(-c4ccc(C)c(C)c4)no3)o2)c1,1120 s
16,Cc1noc(-c2nn(C)c3c2CN(C(=O)c2cc4c(s2)CCCC4)CC3)n1,882 s
17,CCc1cccc(NC(=O)c2cc(C(C)C)n3nccc3n2)c1,1240 s
18,CCN1c2ccc(C)cc2C(=O)NC12CCN(C(=O)c1ccc(OC)cc1)CC2,810 s
19,COCCN(CCOC)c1ncnc2c1cnn2-c1ccc(C)cc1C,902 s
20,CNC(=O)N1CCC(N2C(=O)C3(CCCCC3)C2c2ccccc2)CC1 (stereo not given),783 s
21,O=S(=O)(c1cccc(C(F)(F)F)c1)N1CCOCC1,794 s

row,SMILES,RP-LC retention time
1,Cc1nc(C)c(-c2cc(C(=O)N3CCN(c4ccc(F)cc4)CC3)n[nH]2)s1,690 s
2,CCN1CCN(C(=O)C2CCCN(c3ncnc4c3nc3n4CCCCC3)C2)CC1 (stereo not given),575 s
3,COc1ccc(C(=O)N2CCCN(c3nnc4ccc(Cl)cn34)CC2)cn1,579 s
4,Cc1ccc(NC(=O)Nc2ccccc2C(N)=O)cc1,815 s
5,Cc1ccc(S(=O)(=O)N2CCC(C(=O)NCCc3csc(-c4cccs4)n3)CC2)cc1,913 s
6,CC1Cc2ccccc2N1C(=O)c1ccc(=O)n(CCC(=O)N2CCN(C3CCCCC3)CC2)n1 (stereo not given),654 s
7,O=C(CS(=O)(=O)Cc1ccccc1)NCc1ccccc1,741 s
8,Cc1oc(-c2ccc(OC(C)C)cc2)nc1CSc1nc2ncccc2o1,1100 s
9,COCc1nc(C2CCN(C(=O)C3CC3)C2)no1 (stereo not given),626 s
10,CCN1C(=O)c2cccnc2Sc2cc(CNC(=O)Cc3cccc(F)c3)ccc21,761 s
11,Cc1nnc(-c2ccc(S(=O)(=O)N3CCOCC3)o2)o1,664 s
12,CCn1c(=O)c(N2CCN(C(=O)Nc3ccc(Br)cc3F)CC2)nc2cccnc21,1000 s
13,COc1ccc(-c2cc(=O)c3cc(Br)ccc3o2)cc1OC,912 s
14,CCn1c(=O)c2ccccc2n(Cc2nc(-c3ccc(C)c(C)c3)no2)c1=O,1100 s
15,CCOc1ccc(CN(CC)Cc2cc(=O)n3cc(Cl)ccc3n2)cc1,654 s
16,CCc1c(C(=O)O)nnn1-c1ccc(Cl)cc1,748 s
17,CCc1nc(-c2ccc(-c3noc(CNS(=O)(=O)c4ccccc4)n3)cc2)cs1,1020 s
18,COc1ccc(Cn2nnc3cc(C(=O)NCC4CCCO4)ccc32)cc1 (stereo not given),733 s
19,CC(CC(=O)O)CC(=O)Nc1nc(-c2ccccc2)c(-c2ccccc2)s1 (stereo not given),927 s
20,Cc1ccc(NC(=O)N2CCc3nc(-c4ccc(Cl)cc4)ncc3C2)cc1,783 s
21,O=C(NC1CCN(c2cc(-c3ccccc3)[nH]n2)C1)c1cc(F)ccc1Cl (stereo not given),708 s

row,SMILES,RP-LC retention time
1,COc1ccc(CC(=O)N2CCc3cn(C)c4cccc(c34)C2)cc1,946 s
2,CCOc1ccc(-c2cc3c(=O)n(Cc4nc(-c5ccc(Cl)c(F)c5)no4)ncn3n2)cc1,1270 s
3,CCc1noc2nc(C)n(CC(=O)NCc3ccc(F)cc3)c(=O)c12,797 s
4,Cc1nc(N2CCOCC2)c2c(C(=O)Nc3ccc(C)c(C)c3)c(C)oc2n1,882 s
5,COc1ccc(S(=O)(=O)N2[C@H]3CC[C@@H]2c2cncnc2C3)cc1,715 s
6,COC(=O)c1ccc(-c2nc3cnccn3c2Nc2cccc(Cl)c2C)cc1,988 s
7,O=C(NCCCn1ccnc1)C1CC(=O)N(CCc2c[nH]c3ccc(Cl)cc23)C1 (stereo not given),603 s
8,CC1(C)C(=O)N(CC(=O)Nc2ccc(F)cc2F)c2ccccc21,871 s
9,c1ccc(-c2n[nH]c(-c3ccccn3)n2)nc1,645 s
10,O=C(c1ccc(Br)o1)N1CCN(c2ccc(NCc3ccccc3)nn2)CC1,668 s
11,Cc1cccc(C(=O)N2CCC3(C2)C(=O)Nc2ccccc23)c1 (stereo not given),734 s
12,Cc1ccc(F)cc1NC(=O)Cn1nc(N2CCC(C)CC2)c2ccccc2c1=O,1180 s
13,Cc1ccc(NC(=O)Cn2c(N)nc(C)cc2=O)cc1,577 s
14,Cc1ccc(Cl)c(NC(=O)Cc2csc(C)n2)c1,687 s
15,CCNc1cc(N2CCC(CCC(=O)NCc3cccs3)CC2)ncn1,627 s
16,O=C(c1ccc(C(F)(F)F)s1)N1C[C@@H]2C[C@H]1C[C@@H]2NS(=O)(=O)c1cccs1,813 s
17,COc1cccc(CC(=O)N2CCc3cc(-c4csc(C)n4)ccc32)c1,967 s
18,CCOc1ccccc1CN1CCc2nc(N3CCN(c4ccccn4)CC3)ncc2C1,583 s
19,O=C(NCc1ccc(Br)cc1)C1CCN(c2nnc(-c3ccccc3)o2)CC1,884 s
20,Cc1cc(F)ccc1N1C(=O)CN(S(C)(=O)=O)CC1(C)C(=O)NC1CCCCC1 (stereo not given),822 s
21,CCCCNC(=O)c1nnn2c1COC(c1ccc(F)cc1)C2 (stereo not given),929 s

# The remaining lines, values ahead:
row,RP-LC retention time,SMILES
1,726 s,Cc1ccc(C)c(NC(=O)C2CCN(S(=O)(=O)c3c(C)[nH]c(C)c3C(=O)N3CCCC3)CC2)c1
2,741 s,CCOC(=O)c1noc2nc(C)nc(NCC3CCN(CCc4ccc(F)cc4)CC3)c12
3,866 s,Cc1cc2c(cc1S(=O)(=O)N1CCCC1C(=O)Nc1ccc(F)c(Cl)c1)OC(C)C(=O)N2 (stereo not given)
4,630 s,CCNC(=O)c1ccc(-c2nc3cc(NS(=O)(=O)c4cccs4)ccc3n2C)cc1
5,603 s,Cc1nc(C)c(-c2nnc(NC(=O)c3ccno3)o2)s1
6,723 s,CCc1noc(NC(C)=O)c1-c1ccc(OC)c(S(=O)(=O)N2CCN(c3ncccn3)CC2)c1
7,903 s,CCS(=O)(=O)Nc1ccc(C2(C(=O)NCc3ccccc3)CCCCC2)cc1
8,712 s,Cn1nc(-c2ccccc2)cc1C(=O)N1CCC(C(=O)Nc2nccs2)CC1
9,763 s,CCc1nnc(-c2ccc3ccn(CC(=O)Nc4ccc(OC)cc4)c3c2)o1
10,958 s,O=C(Nc1ccc(F)cc1F)C1CCCN(C(=O)Cc2cccc3ccccc23)C1 (stereo not given)
11,962 s,CCN1CCCc2cc(C(=O)NCc3cccc(OC)c3)sc21
12,774 s,CC(=O)N(C)c1ccc(NC(=O)c2c(-c3ccccc3Cl)noc2C)cc1
13,810 s,COc1cc(OC)cc(C(=O)N2CCC3(CC2)N=C(c2ccccc2)NO3)c1
14,808 s,CCS(=O)(=O)N1CCCc2cc(C(=O)NCC(C)C)ccc21
15,901 s,Cc1ccc(CNc2c(-c3cccc(Cl)c3)nc3ncccn23)cc1
16,708 s,Cc1ccc(-c2nc3ccc(Cl)cn3c2Nc2ccc3c(c2)OCO3)cc1
17,956 s,CCOc1ccc(-c2noc(Cn3c(=O)n(CCCOC)c(=O)c4ccccc43)n2)cc1OC
18,689 s,COC(=O)c1cnc2nc(C)ccc2c1Nc1cc(F)ccc1C
19,675 s,CCCOc1ccnc2c1c(=O)n(CC(=O)Nc1cc(C)on1)c(=O)n2C
20,751 s,CN1c2cc(F)ccc2C(=O)NC12CCN(C(=O)c1ccccc1F)CC2
21,1180 s,COC(=O)c1ccccc1NC(=O)c1c(O)c2cccnc2n(-c2ccc(F)cc2)c1=O
22,628 s,Cc1c(C(=O)NCCCN2CCC(C)CC2)sc2ncn(CC(=O)N3CCCCC3C)c(=O)c12 (stereo not given)
23,610 s,O=C(NCc1ccccc1Br)c1cn2c(n1)CCCC2
24,914 s,CSc1ccc(-c2nc3cnccn3c2NC2CCCC2)cc1
25,713 s,Cc1nc(-n2cccc2)sc1C(=O)N1CCN(C(=O)c2ccco2)CC1
26,1080 s,CC(C)(C)c1ccc2c(c1)N(S(=O)(=O)c1ccccc1)CC(C(=O)NC1CC1)O2 (stereo not given)
27,566 s,Cc1cnc(C2CN(C(=O)C3(C)CCCCC3)C2)n1Cc1ccncc1
